Results published in patent US11021457B2, “Class of isoindolone-imide ring-1,3-dione-2-ene compounds, composition and use thereof” (WIGEN BIOMEDICINE TECHNOLOGY (SHANGHAI) CO., LTD., priority 2017, dated 2021).

What was measured:
Type in all cases: cell-based
MDA-MB-453 = assay: Inhibition of tumor cell proliferation, CellTiter-Glo, MDA-MB-453; settings: compound concentration 50 μM, 72 hours; for cell survival rate (%) at 50 µM: Homo sapiens, MDA-MB-453, read-out: Inhibitory activity against proliferation (cell survival rate) MDA-MB-453
Procedure: (§1) For various cell lines, the corresponding complete medium was used, and culture was carried out in an incubator at 37° C. with 5% CO2. The cells were counted, and inoculated into a 96-well plate at 2000-10000 cells/100 μl per well according to the cell volume and growth rate. The suspended cells were treated immediately, and the adherent cells were treated after adherence. The CellTiter-Glo method was used to detect the changes in cell viability 72 hours after the administration, and the cell survival rate at different concentrations was calculated by a formula: Survival rate (%)=(RLU of treatment well−RLU of blank well)/(RLU of control well−RLU of blank well)×100.
(§2) Method for expressing the inhibitory activity of the compounds against the proliferation of tumor cells: Evaluation was made based on the cell survival rate at a compound concentration of 50 μM. 60≤survival rate (%)<90 is considered to have low inhibitory activity against the proliferation of tumor cells (+); 30<survival rate (%)≤60 is considered to have moderate inhibitory activity against the proliferation of tumor cells (++); and survival rate (%)≤30 is considered to have high inhibitory activity against the proliferation of tumor cells (+++).

RPMI-8226 = assay: Inhibition of tumor cell proliferation, CellTiter-Glo, RPMI-8226; settings: compound concentration 50 μM, 72 hours; for cell survival rate (% of control) at 50 µM: Homo sapiens, RPMI-8226, read-out: Inhibitory activity against proliferation (cell survival rate) RPMI-8226
Procedure: as §1, §2

SU-DHL6 = assay: Inhibition of tumor cell proliferation, CellTiter-Glo, SU-DHL6; settings: compound concentration 50 μM, 72 hours; for cell survival rate (% of control) at 50 µM: Homo sapiens, SU-DHL-6, read-out: Inhibitory activity against proliferation (cell survival rate) SU-DHL6
Procedure: as §1, §2

BxPC-3 = assay: Inhibition of tumor cell proliferation, CellTiter-Glo, BxPC-3; settings: compound concentration 50 μM, 72 hours; for cell survival rate (%) at 50 µM: Homo sapiens, BXPC-3, read-out: Inhibitory activity against proliferation (cell survival rate) BxPC-3
Procedure: as §1, §2

A549 = assay: Inhibition of tumor cell proliferation, CellTiter-Glo, A549; settings: compound concentration 50 μM, 72 hours; for cell survival rate (% of control) at 50 µM: Homo sapiens, A549, read-out: Inhibitory activity against proliferation (cell survival rate) A549
Procedure: as §1, §2

K562 = assay: Inhibition of tumor cell proliferation, CellTiter-Glo, K562; settings: compound concentration 50 μM, 72 hours; for cell survival rate (%) at 50 µM: Homo sapiens, K562, read-out: Inhibitory activity against proliferation (cell survival rate) K562
Procedure: as §1, §2

| Compound | Inhibitory activity against proliferation (cell survival rate) MDA-MB-453 (MDA-MB-453) | Inhibitory activity against proliferation (cell survival rate) RPMI-8226 (RPMI-8226) | Inhibitory activity against proliferation (cell survival rate) SU-DHL6 (SU-DHL6) | Inhibitory activity against proliferation (cell survival rate) BxPC-3 (BxPC-3) | Inhibitory activity against proliferation (cell survival rate) A549 (A549) | Inhibitory activity against proliferation (cell survival rate) K562 (K562) | cell survival rate (%) at 50 µM (MDA-MB-453) [%] | cell survival rate (% of control) at 50 µM (RPMI-8226) [%] | cell survival rate (% of control) at 50 µM (SU-DHL6) [%] | cell survival rate (%) at 50 µM (BxPC-3) [%] | cell survival rate (% of control) at 50 µM (A549) [%] | cell survival rate (%) at 50 µM (K562) [%] |
| --- | --- | --- | --- | --- | --- | --- | --- | --- | --- | --- | --- | --- |
| O=C1CCC(N2Cc3c(NCCN4CCN(CCNC=C5C(=O)CC(c6ccccc6)CC5=O)CC4)cccc3C2=O)C(=O)N1 (centres unmarked) [Compound 107] | ++ (30<survival rate (%)≤60) | +++ (survival rate (%)≤30) | + (60≤survival rate (%)<90) | + (60≤survival rate (%)<90) | +++ (survival rate (%)≤30) | +++ (survival rate (%)≤30) | – | – | – | – | – | – |
| O=C1CCC(N2Cc3c(NC=C4C(=O)CC(c5ccc(O)cc5)CC4=O)cccc3C2=O)C(=O)N1 (centres unmarked) [Compound 34] | +++ (survival rate (%)≤30) | ++ (30<survival rate (%)≤60) | +++ (survival rate (%)≤30) | + (60≤survival rate (%)<90) | + (60≤survival rate (%)<90) | ++ (30<survival rate (%)≤60) | – | – | – | – | – | – |
| O=C1CCC(N2Cc3c(NC(=O)[C@@H]4C[C@H](O)CN4CCNC=C4C(=O)CC(c5ccccc5)CC4=O)cccc3C2=O)C(=O)N1 (some centres unmarked) [Compound 65] | +++ (survival rate (%)≤30) | +++ (survival rate (%)≤30) | +++ (survival rate (%)≤30) | + (60≤survival rate (%)<90) | +++ (survival rate (%)≤30) | +++ (survival rate (%)≤30) | – | – | – | – | – | – |
| O=C1CCC(N2Cc3c(NC=C4C(=O)CC(c5ccc(-c6ccncc6)cc5)CC4=O)cccc3C2=O)C(=O)N1 (centres unmarked) [Compound 117] | + (60≤survival rate (%)<90) | +++ (survival rate (%)≤30) | + (60≤survival rate (%)<90) | + (60≤survival rate (%)<90) | + (60≤survival rate (%)<90) | ++ (30<survival rate (%)≤60) | – | – | – | – | – | – |
| O=C1CCC(N2Cc3c(NC(=O)c4ccc(CN5CCN(CCNC=C6C(=O)CC(c7ccccc7)CC6=O)CC5)cc4)cccc3C2=O)C(=O)N1 (centres unmarked) [Compound 92] | ++ (30<survival rate (%)≤60) | +++ (survival rate (%)≤30) | +++ (survival rate (%)≤30) | + (60≤survival rate (%)<90) | + (60≤survival rate (%)<90) | + (60≤survival rate (%)<90) | – | – | – | – | – | – |
| O=C1CCC(N2Cc3c(NC=C4C(=O)CC(c5nccs5)CC4=O)cccc3C2=O)C(=O)N1 (centres unmarked) [Compound 111] | – | – | – | – | – | – | ≤ 30 | ≤ 30 | ≤ 30 | 60 to 90 | 60 to 90 | ≤ 30 |
| O=C1CCC(N2C(=O)c3cccc(OCC(=O)N4CCN(CCNC=C5C(=O)CC(c6ccccc6)CC5=O)CC4)c3C2=O)C(=O)N1 (centres unmarked) [Compound 105] | ++ (30<survival rate (%)≤60) | + (60≤survival rate (%)<90) | + (60≤survival rate (%)<90) | ++ (30<survival rate (%)≤60) | +++ (survival rate (%)≤30) | + (60≤survival rate (%)<90) | – | – | – | – | – | – |
| O=C1CCC(N2Cc3c(NC=C4C(=O)CC(C(=O)Nc5ccc(Cl)cc5)CC4=O)cccc3C2=O)C(=O)N1 (centres unmarked) [Compound 135] | +++ (survival rate (%)≤30) | ++ (30<survival rate (%)≤60) | +++ (survival rate (%)≤30) | + (60≤survival rate (%)<90) | +++ (survival rate (%)≤30) | ++ (30<survival rate (%)≤60) | – | – | – | – | – | – |
| O=C1CCC(N2Cc3c(NC=C4C(=O)NC(c5ccccc5)NC4=O)cccc3C2=O)C(=O)N1 (centres unmarked) [Compound 115] | – | – | – | – | – | – | ≤ 30 | 60 to 90 | 30 to 60 | 60 to 90 | 30 to 60 | 30 to 60 |
| O=C1CC(c2ccccc2)CC(=O)C1=CNCCN1CCC(C(=O)N2C(=O)CCC(N3C(=O)c4ccccc4C3=O)C2=O)CC1 (centres unmarked) [Compound 102] | +++ (survival rate (%)≤30) | +++ (survival rate (%)≤30) | ++ (30<survival rate (%)≤60) | + (60≤survival rate (%)<90) | +++ (survival rate (%)≤30) | +++ (survival rate (%)≤30) | – | – | – | – | – | – |
| O=C1CCC(N2Cc3c(NC(CO)=C4C(=O)CC(c5ccccc5)CC4=O)cccc3C2=O)C(=O)N1 (centres unmarked) [Compound 74] | + (60≤survival rate (%)<90) | + (60≤survival rate (%)<90) | + (60≤survival rate (%)<90) | + (60≤survival rate (%)<90) | + (60≤survival rate (%)<90) | + (60≤survival rate (%)<90) | – | – | – | – | – | – |
| O=C1CCC(N2Cc3c(NC(=O)c4ccc(NC=C5C(=O)CC(c6ccccc6)CC5=O)nc4)cccc3C2=O)C(=O)N1 (centres unmarked) [Compound 66] | ++ (30<survival rate (%)≤60) | + (60≤survival rate (%)<90) | +++ (survival rate (%)≤30) | + (60≤survival rate (%)<90) | +++ (survival rate (%)≤30) | +++ (survival rate (%)≤30) | – | – | – | – | – | – |
| O=C1CCC(N2Cc3c(N/C=C4\C(=O)CCC(c5ccccc5)CC4=O)cccc3C2=O)C(=O)N1 (centres unmarked) [Compound 124] | – | – | – | – | – | – | ≤ 30 | 60 to 90 | 60 to 90 | 30 to 60 | 60 to 90 | 60 to 90 |
| O=C1CCC(N2Cc3c(NC=C4C(=O)CC(C5CCCCC5)CC4=O)cccc3C2=O)C(=O)N1 (centres unmarked) [Compound 131] | +++ (survival rate (%)≤30) | +++ (survival rate (%)≤30) | + (60≤survival rate (%)<90) | + (60≤survival rate (%)<90) | – | ++ (30<survival rate (%)≤60) | – | – | – | – | – | – |
